Source: PubChem BioAssay (NCI)
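Growth conditions: 96-well plates. Treatment: test compound, 48 hours, 5 concentrations. Analysis: linear interpolation between bracketing concentrations; unreached endpoints set to highest concentration. TGI is the concentration that stops growth completely.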

What was measured:
Test in all cases: NCI tumour cell line growth inhibition, 48 h
[1] = system: SF-539 CNS
[2] = system: HOP-92 NSCLC
[3] = system: RXF 393 renal
[4] = system: SF-295 CNS
[5] = system: NCI-H23 lung
[6] = system: M19-MEL melanoma
[7] = system: SK-MEL-2 melanoma
[8] = system: HT29 colon
[9] = system: OVCAR-3 ovarian
[10] = system: DMS 114 small cell lung
[11] = system: KM12 colon
[12] = system: LXFL 529 NSCLC
[13] = system: UACC-257 melanoma
[14] = system: SNB-19 CNS
[15] = system: SNB-78 CNS
[16] = system: OVCAR-5 ovarian
[17] = system: SK-OV-3 ovarian
[18] = system: M14 melanoma
[19] = system: COLO 205 colon
[20] = system: RPMI-8226 leukemia
[21] = system: K-562 leukemia
[22] = system: MALME-3M melanoma
[23] = system: HOP-62 NSCLC
[24] = system: IGROV1 ovarian
[25] = system: SF-268 CNS
[26] = system: U251 CNS
[27] = system: SK-MEL-28 melanoma
[28] = system: KM20L2 colon
[29] = system: UACC-62 melanoma
[30] = system: ACHN renal
[31] = system: NCI-H460 lung
[32] = system: UO-31 renal
[33] = system: OVCAR-4 ovarian
[34] = system: SNB-75 CNS
[35] = system: HCT-116 colon
[36] = system: A498 renal
[37] = system: MOLT-4 leukemia
[38] = system: T-47D breast
[39] = system: NCI/ADR-RES ovarian
[40] = system: CAKI-1 renal
[41] = system: 786-0 renal
[42] = system: TK-10 renal
[43] = system: MDA-MB-231 breast
[44] = system: PC-3 prostate
[45] = system: OVCAR-8 ovarian
[46] = system: NCI-H226 lung
[47] = system: HL-60(TB) leukemia
[48] = system: MDA-MB-435
[49] = system: A549 NSCLC
[50] = system: SR leukemia
[51] = system: CCRF-CEM leukemia
[52] = system: MCF7 breast
[53] = system: HCT-15 colon
[54] = system: DU-145 prostate
[55] = system: SN12C renal
[56] = system: MDA-N
[57] = system: EKVX NSCLC
[58] = system: LOX IMVI melanoma
[59] = system: NCI-H522 lung
[60] = system: SW-620 colon
[61] = system: BT-549 breast
[62] = system: HCC-2998 colon
[63] = system: HS 578T breast
[64] = system: SK-MEL-5 melanoma

CCOP(=O)(OCC)/C(C#N)=C/c1cc(O)ccc1O
TGI [1]: > 100 µM | TGI [2]: > 100 µM | TGI [3]: > 100 µM | TGI [4]: > 100 µM | TGI [5]: > 100 µM | TGI [6]: > 100 µM | TGI [7]: > 100 µM | TGI [8]: > 100 µM | TGI [9]: > 100 µM | TGI [10]: > 100 µM | TGI [11]: > 100 µM | TGI [12]: > 100 µM | TGI [13]: > 100 µM | TGI [14]: > 100 µM | TGI [15]: > 100 µM | TGI [16]: > 100 µM | TGI [17]: > 100 µM | TGI [18]: > 100 µM | TGI [19]: > 100 µM | TGI [20]: > 100 µM | TGI [21]: > 100 µM | TGI [22]: > 100 µM | TGI [23]: > 100 µM | TGI [24]: > 100 µM | TGI [25]: > 100 µM | TGI [26]: > 100 µM | TGI [27]: > 100 µM | TGI [28]: > 100 µM | TGI [29]: > 100 µM | TGI [30]: > 100 µM | TGI [31]: > 100 µM | TGI [32]: > 100 µM | TGI [33]: > 100 µM | TGI [34]: > 100 µM | TGI [35]: > 100 µM | TGI [36]: > 100 µM

C/C=C(\C)C(=O)OC1C2C(C)C(=O)OC2C(O)C(C)C2C=CC(=O)C21C (stereo not given)
TGI [1]: 36.4 µM | TGI [2]: 50.5 µM | TGI [3]: 24.5 µM | TGI [37]: 33.7 µM | TGI [38]: 43.3 µM | TGI [4]: 32.7 µM | TGI [5]: 27.1 µM | TGI [39]: 49.9 µM | TGI [40]: 28.4 µM | TGI [7]: 34.4 µM | TGI [8]: 32 µM | TGI [9]: 23.7 µM | TGI [11]: 30.3 µM | TGI [41]: 30.3 µM | TGI [42]: 26.9 µM | TGI [43]: 13.7 µM | TGI [44]: 34.1 µM | TGI [13]: 30.2 µM | TGI [45]: 34.8 µM | TGI [14]: 26.3 µM | TGI [46]: 46.5 µM | TGI [47]: 18.4 µM | TGI [48]: 26.1 µM | TGI [49]: 61.3 µM | TGI [50]: 18.3 µM | TGI [16]: 38.8 µM | TGI [51]: 35.1 µM | TGI [52]: 21.6 µM | TGI [53]: 34.5 µM | TGI [54]: 24.7 µM | TGI [55]: 43.1 µM | TGI [17]: 39.6 µM | TGI [18]: 31.3 µM | TGI [19]: 26.3 µM | TGI [20]: 32.1 µM | TGI [56]: 22.8 µM | TGI [21]: 17.4 µM | TGI [22]: 27 µM | TGI [57]: 38 µM | TGI [23]: 40.3 µM | TGI [24]: 25.5 µM | TGI [25]: 56.5 µM | TGI [58]: 28.5 µM | TGI [26]: 24.6 µM | TGI [27]: 28.1 µM | TGI [59]: 12.5 µM | TGI [60]: 28.7 µM | TGI [29]: 26.1 µM | TGI [30]: 26.8 µM | TGI [31]: 20.6 µM | TGI [61]: 25.2 µM | TGI [32]: 32.8 µM | TGI [33]: > 74.7 µM | TGI [34]: 43.3 µM | TGI [62]: 29.8 µM | TGI [63]: > 64.7 µM | TGI [35]: 22.6 µM | TGI [36]: 53.3 µM | TGI [64]: 21.4 µM
